Measured values from the supplement of paper PMC11208160.

Experiment: recombinant barcode read abundance after kanamycin selection (control-corrected) (log10(CPM+1)); higher = more efficient recombination; sequences stand for … in AGTGCAGAGAAAATCGGCCAGTTTTCTCTGCCTGCAGTCCGCATGCCGT…AGATTTATGCAGCGGACTGCCTTTCTCCCAAAGTGATAAACCGGACAGTATCATGGACCGGTTTTCCCGGTAATCCGTATTTGCAAGGTTGGTTTCACT; site = the 11-nt target
Procedure, shortened: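 Values are log10(CPM+1) from a pooled E. coli screen of targets paired with IS621 bridge RNA target-binding loops. Recombination efficiency here means counts per million of recombinant-junction barcodes, averaged and control-corrected. Plates were chloramphenicol/ampicillin LB agar for the control and chloramphenicol/ampicillin/kanamycin with 0.1 mM IPTG, two replicates each.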
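Also: IS621 recombinase and bridge RNA in Escherichia coli cells.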

Row | Sequence | recombinant barcode read abundance (log10)
1 | GACCGAGCTTGGGTTCTAACCTGTTGCCT (site GACCGCGCTAG) | 0.0201
2 | GACCGAGCTTGGGTTCTAACCTGTTGCCT (site GACCGGGCTAG) | 0.145
3 | GACCGAGCTTGGGTTCTAACCTGTTGCCT (site GACCGTGCTAG) | 0.345
4 | GACCGTCCTTGGGTTCTAACCTGTTGCGT (site GACCGTCCTAA) | 0.306
5 | GACCGTCCTTGGGTTCTAACCTGTTGCGT (site GACCGTCCTAC) | 2.65
6 | GACCGTCCTTGGGTTCTAACCTGTTGCGT (site GACCGTCCTAG) | 0.573
7 | GACCGTCCTTGGGTTCTAACCTGTTGCGT (site GACCGTCCTAT) | 1.14
8 | GACCTGGCTTGGGTTCTAACCTGTTGCCG (site GACCTGACTTG) | 0.176
9 | GACCTGGCTTGGGTTCTAACCTGTTGCCG (site GACCTGGCTCG) | 0.886
10 | GACGCAACTTGGGTTCTAACCTGTTGCAT (site GACGCAACTAT) | 0.0836
11 | GACGCAACTTGGGTTCTAACCTGTTGCAT (site GACGCTTCTAT) | 0.0419
12 | GACGCCACTTGGGTTCTAACCTGTTGCCT (site AACGCCACTAG) | 0.162
13 | GACGCCACTTGGGTTCTAACCTGTTGCCT (site GACGCCACTAG) | 0.425
14 | GACGCCTCTTGGGTTCTAACCTGTTGCCT (site AACGCCTCTAG) | 0.227
15 | GACGCCTCTTGGGTTCTAACCTGTTGCCT (site CACGCCTCTAG) | 0.202
16 | GACGCCTCTTGGGTTCTAACCTGTTGCCT (site GACGCCTCTAG) | 0.47
17 | GACGCCTCTTGGGTTCTAACCTGTTGCCT (site TACGCCTCTAG) | 0
18 | GACGCCTCTTGGGTTCTAACCTGTTGCGC (site GACGCCTCTGC) | 2.25
19 | GACGCCTCTTGGGTTCTAACCTGTTGCGC (site TTGAAACCTAG) | 0.26
20 | GACGGACCTTGGGTTCTAACCTGTTGCTA (site ATAACGGCTAG) | 0.0648
21 | GACGGACCTTGGGTTCTAACCTGTTGCTA (site GACGGACCTTA) | 1.26
22 | GACGGATCTTGGGTTCTAACCTGTTGCCT (site GACGGATCTAA) | 0.842

Row | Sequence | recombinant barcode read abundance (log10)
23 | GACGGATCTTGGGTTCTAACCTGTTGCCT (site GACGGATCTAC) | 0.101
24 | GACGGATCTTGGGTTCTAACCTGTTGCCT (site GACGGATCTAG) | 0.212
25 | GACGGATCTTGGGTTCTAACCTGTTGCCT (site GACGGATCTAT) | 0.0859
26 | GACGGCACTTGGGTTCTAACCTGTTGCGG (site GACGGCACTCC) | 2.56
27 | GACGGCACTTGGGTTCTAACCTGTTGCGG (site TCTCATGCTAT) | 0.166
28 | GACGGCTCTTGGGTTCTAACCTGTTGCCT (site GACGGCTCTAG) | 1.3
29 | GACGGCTCTTGGGTTCTAACCTGTTGCCT (site GCCGGCTCTAG) | 0.365
30 | GACGGGGCTTGGGTTCTAACCTGTTGCAG (site GACGGAGCTCA) | 0.753
31 | GACGGGGCTTGGGTTCTAACCTGTTGCAG (site GACGGGGCTCT) | 2.59
32 | GACGTACCTTGGGTTCTAACCTGTTGCCT (site GACATACCTAG) | 0.428
33 | GACGTACCTTGGGTTCTAACCTGTTGCCT (site GACCTACCTAG) | 0.133
34 | GACGTACCTTGGGTTCTAACCTGTTGCCT (site GACGTACCTAG) | 1.31
35 | GACGTACCTTGGGTTCTAACCTGTTGCCT (site GACTTACCTAG) | 0.0104
36 | GACGTAGCTTGGGTTCTAACCTGTTGCCT (site GACGTAGCTAG) | 1.6
37 | GACGTAGCTTGGGTTCTAACCTGTTGCCT (site GCCGTAGCTAG) | 0.083
38 | GACGTAGCTTGGGTTCTAACCTGTTGCCT (site GGCGTAGCTAG) | 0.52
39 | GACGTAGCTTGGGTTCTAACCTGTTGCCT (site GTCGTAGCTAG) | 0.279
40 | GACGTTGCTTGGGTTCTAACCTGTTGCCT (site GACGTTGCTAG) | 1.32
41 | GACGTTGCTTGGGTTCTAACCTGTTGCCT (site GACTTTACTAG) | 0.102
42 | GACTACCCTTGGGTTCTAACCTGTTGCCT (site ATGCTGTCTTA) | 0.0344
43 | GACTACCCTTGGGTTCTAACCTGTTGCCT (site GACTACCCTAG) | 2.2
